Reference: publication PMC11434645, “Mechanisms of NMDA Receptor Inhibition by Biguanide Compounds” (Pharmaceuticals, 2024)
Where two headings read alike, the source gives them in different places. One block for each compound: values may come before it.

How the values were obtained:
[1] = tested on: native NMDA receptors of rat CA1 hippocampal pyramidal neurons; experiment: Whole-cell patch-clamp of NMDA-induced currents in isolated CA1 pyramidal neurons; format: cell-based; settings: for inhibition of NMDA receptor steady-state currents (in words): 10 µM; for % of Inhibition (10 µM) −80 mV: steady-state current, 10 µM compound; for washout of mixture with Mg2+ compared with compound alone: 10 mM Mg2+; for washout τ, compound alone (representative recording) / washout τ, compound + Mg (representative recording): Figure 5; for washout τ, compound + Mg (representative recording): with 10 mM Mg2+; for agonist dependence of action: NMDA 30 µM vs 1 mM; for agonist dependence of action / voltage dependence of inhibition (in words): cycloguanil 5 µM, proguanil 10 µM, phenformin 20 µM; for Kd: fit of voltage dependence (+30 to −120 mV) with Equation (2); for δ (fraction of membrane electric field crossed): fit with Equation (2), * = fixed value; for voltage dependence of inhibition (in words): holding potential +30 to −120 mV; for competitive or not competitive inhibition: inhibition compared at 30 µM and 1000 µM NMDA; for % of trapping in double-pulse protocol / tail currents on coapplication with agonist: cycloguanil 100 µM; for Hill Coeff.: concentration–inhibition curve; for tail currents on coapplication with agonist: proguanil 100 µM, phenformin 300 µM; for washout time constant τ, compound alone: proguanil 30 µM, magnesium 10 mM
Method: NMDA receptors of these neurons consist mainly of GluN1, GluN2A and/or GluN2B subunits. We initially checked whether 10 µM concentrations of biguanide compounds metformin, phenformin, moroxydine, cycloguanil and proguanil would inhibit these steady-state currents. […] Hill coefficients were 1.0 ± 0.1, 1.1 ± 0.2 and 1.1 ± 0.1 for cycloguanil, proguanil and phenformin, respectively.
All experiments were conducted with approval by the Animal Care and Use Committee of the Sechenov Institute of Evolutionary Physiology and Biochemistry of the Russian Academy of Sciences (protocol 1-13/2023, 26 January 2023). Outbred male Wistar rats (13–18 days old, weighing 25–35 g) were sourced from the IEPHB facility. Maximum efforts were made to minimize the number of animals used and to reduce discomfort.
The rats were decapitated after sevoflurane anaesthetization. The brains were rapidly removed and cooled to 2–4 °C. Transverse hippocampal slices were prepared using a vibratome (Campden Instruments, Loughborough, UK), and single neurons were freed from slices by vibrodissociation. All experiments were performed at room temperature.
The whole-cell patch clamp technique was used to record membrane currents in response to applications of the agonists. Series resistance (<20 MΩ) was compensated by 70–80% and monitored during experiments. Currents were recorded using an EPC-8 amplifier (HEKA Electronics, Lambrecht, Germany), filtered at 5 kHz, sampled and stored on a personal computer. Drugs were applied using an RSC-200 (BioLogic, Seyssinet-Pariset, France) perfusion system under computer control. The extracellular solution contained (in mM) NaCl 143, KCl 5, CaCl2 2.5, D-glucose 18, and HEPES 10 (pH adjusted to 7.4 with […]). The pipette solution contained (in mM) CsF 100, CsCl 40, NaCl 5, CaCl2 0.5, EGTA 5, and HEPES 10 (pH adjusted to 7.2 with CsOH). Proguanil (HY-B0806), cycloguanil (HY-12784), phenformin hydrochloride (HY-16397A), metformin hydrochloride (HY-17471A), moroxydine hydrochloride (HY-B0420A) and ifenprodil tartrate (HY-12882A) were obtained from MedChemExpress (Monmouth Junction, NJ, USA). Other reagents were purchased from MedChemExpress (Monmouth Junction, NJ, USA), Sigma (St. Louis, MO, USA) or Tocris Bioscience (Bristol, UK).
Experiments were performed on pyramidal neurons from the CA1 area of the hippocampus. Unless otherwise specified, NMDA receptors were activated with 100 µM NMDA and 10 µM glycine. The percentage of steady-state current blockage by various drug concentrations was measured at holding voltages of either −80 or −30 mV. Transient processes lasting more than 20 ms were modeled using single or double exponential functions. In the case of double exponential fitting, the weighted time constant was employed.
The voltage dependence of the compounds’ action was analyzed using the classical Woodhull model with the voltage-independent component addition. According to the Woodhull model of an impermeable blocker, the voltage dependence of steady-state blockade is defined by Equation (1):(1) B=100/(1+Kb/C×exp〖Fzδ/RTV〗) where V is voltage; B is the level of the block (%); C is the concentration of the drug; z is the molecular charge; and R, F and T have their standard meanings. Kb is the affinity of a drug for the channel, and δ is the electrical depth of the binding site. The δ value reflects the fraction of membrane electric field that the charged blocking molecule crosses on its pathway between the external media and the binding site in the channel.
Our experimental data were not well fitted by the abovementioned equation, presumably because of the presence of a voltage-independent component. Thus, we used an Equation (2), taking it into account, assuming that the binding to the deep and superficial site is independent:(2) B=100−100/(1+C/(Kvd×exp〖Fzδ/RTV〗)+C/Kvi+(C×C)/(Kvd×exp〖Fzδ/RTV〗×Kvi)) […]

[2] = tested on: NMDA receptors; design: method as in PMID 12009768; settings: acute phenformin treatment, cited from earlier work
[3] = molecular target: NMDA receptors; settings: −30 mV in the presence of physiological magnesium concentration; read-out: IC50 of memantine; cited from earlier work
[4] = 100 µM NMDA + 10 µM glycine, −80 mV, no Mg2+
[5] = −80 mV, Cyclog 10 µM, Ifen 10 µM
[6] = read-out: Kvd (affinity for the deep site in the channel pore)
[7] = read-out: Kvi (affinity for the superficial, voltage-independent site)
[8] = −30 mV holding voltage, 1 mM Mg2+, read-out: IC50 at −30 mV in the presence of 1 mM Mg2+
[9] = −30 mV holding voltage, no Mg2+, read-out: IC50 at −30 mV in the absence of Mg2+
[10] = −80 mV holding voltage, no Mg2+, 100 µM NMDA + 10 µM glycine, read-out: IC50, µM −80 mV
[11] = −80 mV, Mg 10 mM, Prog 30 µM, Phen 50 µM

Compound: CN(C)C(=N)N=C(N)N [Metformin, metformin]
inhibition of NMDA receptor steady-state currents (in words) ([1]; −80 mV): practically ineffective
% of Inhibition (10 µM) −80 mV [1, 4]: 6 ± 5 (n = 4) %

Compound: CC(C(O)c1ccc(O)cc1)N1CCC(Cc2ccccc2)CC1 (stereo not drawn) [ifenprodil]
washout of mixture with Mg2+ compared with compound alone ([1]; −80 mV): does not affect
washout τ, compound alone (representative recording) [1, 5]: 28000 ms
washout τ, compound + Mg (representative recording) ([1]; −80 mV): 28000 ms

IC50 [1, 8]: 34 ± 10 µM
IC50 [1, 9]: 20 ± 5 µM
IC50 [1, 10]: 3.4 ± 0.6 µM
Compound: CC1(C)N=C(N)N=C(N)N1c1ccc(Cl)cc1 [Cycloguanil, cycloguanil]
mechanism of NMDA receptor inhibition [1]: voltage-dependent trapping channel blocker
inhibition of NMDA receptor steady-state currents (in words) ([1]; −80 mV): significant inhibition
agonist dependence of action [1]: agonist-independent
Kd [1, 6]: 55 ± 11 µM
Kd [1, 7]: > 500 µM
δ (fraction of membrane electric field crossed) [1]: 0.7 ± 0.1
voltage dependence of inhibition (in words) [1]: clearly voltage-dependent
competitive or not competitive inhibition [1]: not competitive
% of Inhibition (10 µM) −80 mV [1, 4]: 76 ± 5 (n = 4) %
effect of 1 mM Mg2+ on activity at −30 mV ([1]; −30 mV holding voltage): attenuated
overshoots on washout in the presence of agonists ([1]; −80 mV): did not demonstrate overshoots
% of trapping in double-pulse protocol ([1]; −80 mV holding voltage): 68 ± 11%
washout of mixture with Mg2+ compared with compound alone ([1]; −80 mV): significantly faster
Hill Coeff. ([1]; −80 mV): 1.0 ± 0.1
washout τ, compound alone (representative recording) [1, 5]: 3000 ms
washout τ, compound + Mg (representative recording) ([1]; −80 mV): 60 ms
tail currents on coapplication with agonist ([1]; −80 mV): tail current absence

Compound: N=C(N)/N=C(\N)N1CCOCC1 [Moroxydine, moroxydine]
inhibition of NMDA receptor steady-state currents (in words) ([1]; −80 mV): practically ineffective
% of Inhibition (10 µM) −80 mV [1, 4]: 5 ± 4 (n = 4) %

Compound: [Mg+2] [magnesium]
washout time constant τ, compound alone ([1]; −80 mV, mean ± SD): 30 ± 16 ms
washout τ, compound alone (representative recording) [1, 11]: 30 ms

IC50 [1, 8]: 17 ± 3 µM
IC50 [1, 9]: 13 ± 3 µM
IC50 [1, 10]: 9 ± 2.2 µM
Compound: [H]/N=C(\N/C(=N/[H])Nc1ccc(Cl)cc1)NC(C)C [Proguanil, proguanil]
mechanism of NMDA receptor inhibition [1]: allosteric inhibitors
inhibition of NMDA receptor steady-state currents (in words) ([1]; −80 mV): significant inhibition
agonist dependence of action [1]: more active in conditions of higher agonist concentration
Kd [1, 6]: > 500 µM
Kd [1, 7]: 14 ± 1 µM
δ (fraction of membrane electric field crossed) [1]: 0.7 *
voltage dependence of inhibition (in words) [1]: mostly voltage-independently with a small voltage-dependent component
competitive or not competitive inhibition [1]: not competitive
% of Inhibition (10 µM) −80 mV [1, 4]: 51 ± 6 (n = 5) %
effect of 1 mM Mg2+ on activity at −30 mV ([1]; −30 mV holding voltage): not affected
activity lower than that of memantine (fold) ([1]; −30 mV, 1 mM Mg2+, compared with memantine IC50 of ref 40): approximately three-fold
overshoots on washout in the presence of agonists ([1]; −80 mV): did not demonstrate overshoots
% of trapping in double-pulse protocol ([1]; −80 mV holding voltage): < 5%
washout of mixture with Mg2+ compared with compound alone ([1]; −80 mV): significantly faster
Hill Coeff. ([1]; −80 mV): 1.1 ± 0.2
washout time constant τ, mixture with Mg2+ ([1]; −80 mV, mean ± SD, proguanil 30 µM + 10 mM Mg2+): 76 ± 32 ms
washout time constant τ, compound alone ([1]; −80 mV, mean ± SD): 470 ± 120 ms
washout τ, compound alone (representative recording) [1, 11]: 550 ms
washout τ, compound + Mg (representative recording) ([1]; −80 mV): 75 ms
tail currents on coapplication with agonist ([1]; −80 mV): tail current absence

IC50 [1, 8]: 41 ± 6 µM
IC50 [1, 9]: 36 ± 5 µM
IC50 [1, 10]: 13 ± 1 µM
Compound: [H]/N=C(/N)N/C(=N/[H])NCCc1ccccc1 [Phenformin, phenformin]
mechanism of NMDA receptor inhibition [1]: allosteric inhibitors
inhibition of NMDA receptor steady-state currents (in words) ([1]; −80 mV): significant inhibition
agonist dependence of action [1]: more active in conditions of higher agonist concentration
Kd [1, 6]: > 500 µM
Kd [1, 7]: 22 ± 2 µM
δ (fraction of membrane electric field crossed) [1]: 0.7 *
voltage dependence of inhibition (in words) [1]: mostly voltage-independently with a small voltage-dependent component
competitive or not competitive inhibition [1]: not competitive
% of Inhibition (10 µM) −80 mV [1, 4]: 44 ± 2 (n = 5) %
effect of 1 mM Mg2+ on activity at −30 mV ([1]; −30 mV holding voltage): not affected
overshoots on washout in the presence of agonists ([1]; −80 mV): did not demonstrate overshoots
% of trapping in double-pulse protocol ([1]; −80 mV holding voltage): < 5%
washout of mixture with Mg2+ compared with compound alone ([1]; −80 mV): significantly faster
Hill Coeff. ([1]; −80 mV): 1.1 ± 0.1
washout τ, compound alone (representative recording) [1, 11]: 180 ms
washout τ, compound + Mg (representative recording) ([1]; −80 mV): 50 ms
tail currents on coapplication with agonist ([1]; −80 mV): tail current absence
effect on NMDA-induced whole-cell current ([2]; 1 µM): did not affect
effect on calcium responses to NMDA [2]: did not alter

Compound: CC12CC3CC(C)(C1)CC(N)(C3)C2 [memantine]
IC50 [3]: 6.4 ± 0.5 µM
